Source: article PMC2929565 (Toxicology and applied pharmacology, 2010)
Like-named read-outs stand apart in the source and are kept apart here. Marks after values point to notes of the source that are not given here.

Columns and labels:
[1] = target: rat Nav1.6 sodium channels (Rattus norvegicus, UniProt O88420); assay type: cell-based; conditions: for Steady-state inactivation K (slope factor) / Activation K (slope factor) / Activation V0.5 (midpoint potential) / Steady-state inactivation V0.5 (midpoint potential) / Tail current decay time constant, fast component (τ1) / Peak current inactivation time constant, fast component (τfast) / Peak current inactivation time constant, slow component (τslow): pyrethroid 100 μM; for Steady-state inactivation K (slope factor) / Activation K (slope factor) / Activation V0.5 (midpoint potential) / Steady-state inactivation V0.5 (midpoint potential): Boltzmann fit; for Steady-state inactivation K (slope factor): control 7.02 ± 0.13; for Activation K (slope factor): control 8.02 ± 0.23; for Activation V0.5 (midpoint potential): control −17.0 ± 0.4; for Steady-state inactivation V0.5 (midpoint potential): control −50.3 ± 0.3; for Tail current decay time constant, fast component (τ1) / Peak current inactivation time constant, fast component (τfast) / Peak current inactivation time constant, slow component (τslow): mean ± SE; for Peak current inactivation time constant, fast component (τfast): control 1.32 ± 0.03; for Peak current inactivation time constant, slow component (τslow): control 10.93 ± 2.25; for Effect of repetitive depolarization on modification (words): trains of high-frequency depolarizing prepulses
rat Nav1.6 sodium channels, sequence (O88420 whole entry): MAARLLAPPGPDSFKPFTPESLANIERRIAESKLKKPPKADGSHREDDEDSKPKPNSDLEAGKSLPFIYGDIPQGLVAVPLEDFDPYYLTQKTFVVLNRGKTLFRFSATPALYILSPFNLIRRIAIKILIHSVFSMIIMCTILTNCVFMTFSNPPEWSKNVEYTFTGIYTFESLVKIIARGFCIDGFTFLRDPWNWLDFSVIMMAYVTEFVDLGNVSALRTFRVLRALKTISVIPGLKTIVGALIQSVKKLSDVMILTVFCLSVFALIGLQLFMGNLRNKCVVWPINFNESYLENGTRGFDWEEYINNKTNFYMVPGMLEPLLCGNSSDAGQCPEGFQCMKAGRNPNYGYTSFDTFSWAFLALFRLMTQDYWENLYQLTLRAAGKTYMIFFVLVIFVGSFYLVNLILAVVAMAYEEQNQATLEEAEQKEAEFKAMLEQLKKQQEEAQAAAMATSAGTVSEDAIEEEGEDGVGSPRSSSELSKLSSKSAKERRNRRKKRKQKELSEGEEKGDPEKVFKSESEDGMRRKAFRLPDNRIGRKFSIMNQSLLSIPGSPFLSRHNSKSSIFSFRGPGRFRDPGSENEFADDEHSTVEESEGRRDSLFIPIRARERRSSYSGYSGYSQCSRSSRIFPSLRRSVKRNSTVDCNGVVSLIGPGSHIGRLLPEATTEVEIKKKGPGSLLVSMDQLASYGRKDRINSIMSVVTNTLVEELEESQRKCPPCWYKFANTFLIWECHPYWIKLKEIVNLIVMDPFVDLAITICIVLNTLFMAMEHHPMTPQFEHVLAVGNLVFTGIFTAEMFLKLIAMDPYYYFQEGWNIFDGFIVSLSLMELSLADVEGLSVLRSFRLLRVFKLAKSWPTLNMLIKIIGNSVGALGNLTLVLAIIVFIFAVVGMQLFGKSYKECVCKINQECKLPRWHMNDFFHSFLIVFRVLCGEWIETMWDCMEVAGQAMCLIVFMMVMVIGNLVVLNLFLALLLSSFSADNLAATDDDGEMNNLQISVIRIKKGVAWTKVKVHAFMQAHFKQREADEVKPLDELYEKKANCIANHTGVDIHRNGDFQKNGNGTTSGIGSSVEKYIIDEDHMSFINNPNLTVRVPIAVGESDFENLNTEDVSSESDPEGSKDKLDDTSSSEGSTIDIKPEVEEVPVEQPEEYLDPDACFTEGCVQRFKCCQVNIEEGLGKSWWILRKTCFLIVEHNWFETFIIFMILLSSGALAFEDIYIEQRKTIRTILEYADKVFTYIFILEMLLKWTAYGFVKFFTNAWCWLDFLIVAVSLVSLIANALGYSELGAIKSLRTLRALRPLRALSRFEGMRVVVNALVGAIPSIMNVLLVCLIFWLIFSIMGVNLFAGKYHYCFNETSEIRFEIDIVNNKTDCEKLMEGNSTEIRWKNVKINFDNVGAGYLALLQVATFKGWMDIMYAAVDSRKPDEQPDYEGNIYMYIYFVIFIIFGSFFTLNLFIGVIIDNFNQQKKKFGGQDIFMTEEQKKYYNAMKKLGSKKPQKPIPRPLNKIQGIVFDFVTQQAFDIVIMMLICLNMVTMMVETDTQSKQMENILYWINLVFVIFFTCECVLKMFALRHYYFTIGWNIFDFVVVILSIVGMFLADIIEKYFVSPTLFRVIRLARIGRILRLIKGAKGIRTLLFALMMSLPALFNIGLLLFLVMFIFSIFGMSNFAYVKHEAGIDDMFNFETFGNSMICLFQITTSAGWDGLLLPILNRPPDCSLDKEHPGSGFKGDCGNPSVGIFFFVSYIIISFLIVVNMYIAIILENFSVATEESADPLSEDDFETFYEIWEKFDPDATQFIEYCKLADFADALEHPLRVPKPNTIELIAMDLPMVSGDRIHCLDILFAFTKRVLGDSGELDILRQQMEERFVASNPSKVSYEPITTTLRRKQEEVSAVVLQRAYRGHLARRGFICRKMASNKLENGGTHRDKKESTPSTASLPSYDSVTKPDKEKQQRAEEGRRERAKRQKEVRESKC
rat Nav1.6 sodium channels, sequence (Q00954 19-218 partner): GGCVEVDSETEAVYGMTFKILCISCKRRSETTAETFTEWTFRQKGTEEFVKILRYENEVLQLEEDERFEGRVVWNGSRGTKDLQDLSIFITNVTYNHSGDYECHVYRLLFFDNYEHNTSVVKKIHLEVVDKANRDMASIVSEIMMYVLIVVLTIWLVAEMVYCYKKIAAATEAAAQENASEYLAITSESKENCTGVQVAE
rat Nav1.6 sodium channels, sequence (P54900 30-215 partner): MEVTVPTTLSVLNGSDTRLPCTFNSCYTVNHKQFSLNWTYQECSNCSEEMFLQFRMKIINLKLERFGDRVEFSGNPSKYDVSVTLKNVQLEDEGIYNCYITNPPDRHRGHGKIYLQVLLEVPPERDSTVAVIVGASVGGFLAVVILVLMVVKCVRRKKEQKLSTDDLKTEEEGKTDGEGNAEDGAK

[2] = target: rat Nav1.2 sodium channels (Rattus norvegicus, UniProt P04775, N209D); assay type: cell-based
rat Nav1.2 sodium channels, sequence (P04775 whole entry N209D): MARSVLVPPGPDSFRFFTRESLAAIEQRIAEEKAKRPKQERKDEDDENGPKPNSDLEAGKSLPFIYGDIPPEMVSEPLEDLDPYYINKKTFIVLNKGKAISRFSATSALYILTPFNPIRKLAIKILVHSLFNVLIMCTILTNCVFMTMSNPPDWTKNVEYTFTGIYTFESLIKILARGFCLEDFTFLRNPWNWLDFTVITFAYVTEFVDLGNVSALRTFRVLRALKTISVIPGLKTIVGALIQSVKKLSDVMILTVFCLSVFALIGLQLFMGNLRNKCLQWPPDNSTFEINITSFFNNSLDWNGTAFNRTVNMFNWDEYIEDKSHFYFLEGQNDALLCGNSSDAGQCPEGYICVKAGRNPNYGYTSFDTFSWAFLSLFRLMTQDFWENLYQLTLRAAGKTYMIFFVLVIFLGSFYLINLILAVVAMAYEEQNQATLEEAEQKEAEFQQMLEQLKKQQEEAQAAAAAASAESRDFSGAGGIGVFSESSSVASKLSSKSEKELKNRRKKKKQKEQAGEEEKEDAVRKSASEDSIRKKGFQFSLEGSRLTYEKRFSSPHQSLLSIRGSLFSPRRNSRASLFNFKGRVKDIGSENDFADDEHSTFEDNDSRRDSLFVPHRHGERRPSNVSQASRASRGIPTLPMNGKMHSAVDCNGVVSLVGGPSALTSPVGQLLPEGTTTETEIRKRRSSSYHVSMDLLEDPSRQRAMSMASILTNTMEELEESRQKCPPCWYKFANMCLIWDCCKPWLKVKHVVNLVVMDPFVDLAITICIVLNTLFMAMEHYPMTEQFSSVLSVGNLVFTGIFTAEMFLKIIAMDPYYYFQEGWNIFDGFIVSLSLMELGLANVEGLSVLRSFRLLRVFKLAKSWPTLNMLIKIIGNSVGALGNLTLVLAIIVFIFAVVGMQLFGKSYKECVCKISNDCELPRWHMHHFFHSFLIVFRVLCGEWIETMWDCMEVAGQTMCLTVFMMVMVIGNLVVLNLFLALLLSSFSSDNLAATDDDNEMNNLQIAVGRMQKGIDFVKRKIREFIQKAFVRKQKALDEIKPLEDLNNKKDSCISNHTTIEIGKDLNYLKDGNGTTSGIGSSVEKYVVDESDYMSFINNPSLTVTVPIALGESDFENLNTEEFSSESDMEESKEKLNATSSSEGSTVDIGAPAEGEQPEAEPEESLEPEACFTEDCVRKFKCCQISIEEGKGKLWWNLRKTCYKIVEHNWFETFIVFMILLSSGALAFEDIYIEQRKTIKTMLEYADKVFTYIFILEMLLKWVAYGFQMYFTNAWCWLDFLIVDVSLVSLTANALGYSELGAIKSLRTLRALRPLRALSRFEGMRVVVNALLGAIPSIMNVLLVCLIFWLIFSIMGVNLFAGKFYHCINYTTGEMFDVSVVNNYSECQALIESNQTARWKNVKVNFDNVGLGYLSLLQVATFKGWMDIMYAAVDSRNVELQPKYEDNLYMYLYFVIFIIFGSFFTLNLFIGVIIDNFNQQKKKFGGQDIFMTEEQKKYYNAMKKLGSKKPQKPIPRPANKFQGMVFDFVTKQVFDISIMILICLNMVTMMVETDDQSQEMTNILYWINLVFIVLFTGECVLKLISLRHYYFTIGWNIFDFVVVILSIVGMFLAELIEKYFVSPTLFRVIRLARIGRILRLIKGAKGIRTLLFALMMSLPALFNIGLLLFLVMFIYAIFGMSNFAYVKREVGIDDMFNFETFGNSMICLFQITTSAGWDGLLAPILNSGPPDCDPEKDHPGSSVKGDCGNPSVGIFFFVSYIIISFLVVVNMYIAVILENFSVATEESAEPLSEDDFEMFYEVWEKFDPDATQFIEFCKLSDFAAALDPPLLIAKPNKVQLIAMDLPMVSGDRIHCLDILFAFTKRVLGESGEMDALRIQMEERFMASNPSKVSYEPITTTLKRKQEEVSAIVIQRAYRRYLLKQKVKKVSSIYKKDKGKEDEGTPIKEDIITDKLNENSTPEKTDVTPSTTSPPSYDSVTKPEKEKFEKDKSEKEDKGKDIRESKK
rat Nav1.2 sodium channels, sequence (Q00954 19-218 partner): as the sequence (Q00954 19-218 partner) above
rat Nav1.2 sodium channels, sequence (P54900 30-215 partner): as the sequence (P54900 30-215 partner) above

rats [3] = test: Acute oral toxicity to rats; assay type: in vivo, rat; conditions: ref Soderlund et al., 2002
rats [4] = conditions: rat, in vivo; cited from earlier work
[5] = 0 prepulses, Hill fit, mean ± SE of 5
[6] = 100 prepulses, Hill fit, mean ± SE of 5
[7] = EC10 0 prepulses vs 100 prepulses

SMILES: Cc1c(F)c(F)c(COC(=O)[C@@H]2[C@H](/C=C(\Cl)C(F)(F)F)C2(C)C)c(F)c1F (racemic) [tefluthrin]
- EC10, resting modification [1, 5]: 14.1 ± 3.7 µM
- Prepulse number up to which extent of modification increased, then stable ([1]; 100 μM): 80 prepulses
- Tail current τ1 relative to S-bioallethrin-induced currents ([1]; 100 μM): approximately 4 fold
- Increase of extent of channel modification by repetitive depolarization ([1]; 100 μM, 100 prepulses vs 0 prepulses): 2.8 fold
- Potency relative to deltamethrin as use-dependent modifier (EC10) ([1]; 100 prepulses): ~ 10 fold
- EC10, use-dependent modification [1, 6]: 0.95 ± 0.22 µM
- Increase of sensitivity (EC10) to the compound by repetitive depolarization [1, 7]: ~ 15 fold
- Sensitivity of Nav1.6 isoform relative to Nav1.2 isoform (concentration–effect data) ([1]; abstract summary, state not specified): at least 15 fold
- Steady-state inactivation K (slope factor) [1]: 6.03 ± 0.10 ^b
- Activation K (slope factor) [1]: 8.06 ± 0.21
- Activation V0.5 (midpoint potential) [1]: −17.0 ± 1.0 mV
- Steady-state inactivation V0.5 (midpoint potential) [1]: −52.3 ± 1.2 mV
- Tail current decay time constant, fast component (τ1) [1]: 9.8 ± 0.6 ms
- Peak current inactivation time constant, fast component (τfast) [1]: 1.12 ± 0.04 ^d ms
- Peak current inactivation time constant, slow component (τslow) [1]: 19.00 ± 0.64 ^d ms
- EC10, resting modification [2, 5]: 222 ± 82 µM
- EC10, use-dependent modification [2, 6]: 16.9 ± 5.5 µM
- Increase of sensitivity (EC10) to the compound by repetitive depolarization [2, 7]: approximately 13 fold
- Acute oral LD50 lower than that of deltamethrin (rats [3]): approximately 5 fold

SMILES: C=CCC1=C(C)[C@@H](OC(=O)[C@@H]2[C@@H](C=C(C)C)C2(C)C)CC1=O [S-bioallethrin]
- Increase of inactivation-resistant current relative to control ([1]; 100 μM, prepulses above 0 mV, control approximately 2% of total current): approximately five-fold
- Effect of repetitive depolarization on modification (words) ([1]; 100 μM): decreased slightly
- Effect of repetitive depolarization on modification (words) ([1]; 100 μM, listed as S-Bioallethrin): no further enhancement of modification
- Steady-state inactivation K (slope factor) [1]: 6.24 ± 0.23
- Activation K (slope factor) [1]: 7.78 ± 0.52
- Activation V0.5 (midpoint potential) [1]: −19.2 ± 1.1 mV
- Steady-state inactivation V0.5 (midpoint potential) [1]: −52.8 ± 1.1 mV
- Tail current decay time constant, fast component (τ1) [1]: 2.3 ± 0.4 ms
- Peak current inactivation time constant, fast component (τfast) [1]: 2.11 ± 0.12 ^d ms
- Peak current inactivation time constant, slow component (τslow) [1]: 7.30 ± 0.35 ^d ms

SMILES: CC1(C)[C@H](C(=O)O[C@H](C#N)c2cccc(Oc3ccccc3)c2)[C@@H]1C=C(Br)Br [deltamethrin]
- Acute oral LD50 (rats [4]): 95 mg/kg
